From ChEMBL document CHEMBL3045785, “Synthesis and anti-inflammatory activity of 1-acetyl/propanoyl-5-aryl-3-(4-morpholinophenyl)-4,5-dihydro-1H-pyrazole derivatives” (2012)

Key:
Rattus norvegicus [1] = assay: Anti-inflammatory activity in Rattus norvegicus albino (rat) assessed as inhibition of carrageenan-induced paw edema at 10 mg/kg, ip administered 1 hr prior tocarrageenan-challenge measured after 3 hr relative to indomethacin; type: functional; settings: route intraperitoneal
Rattus norvegicus [2] = assay: Anti-inflammatory activity in Rattus norvegicus albino (rat) assessed as inhibition of carrageenan-induced paw edema at 10 mg/kg, ip administered 1 hr prior tocarrageenan-challenge measured after 3 hr relative to control; type: functional; settings: route intraperitoneal

CCC(=O)N1N=C(c2ccc(N3CCOCC3)cc2)CC1c1cc(OC)cc(OC)c1 (stereo not given)
inhibition in vivo at 10 mg/kg (Rattus norvegicus [1]): 27%
inhibition in vivo at 10 mg/kg (Rattus norvegicus [2]): 15.9%

CCC(=O)N1N=C(c2ccc(N3CCOCC3)cc2)CC1c1cc(OC)c(OC)c(OC)c1 (stereo not given)
inhibition in vivo at 10 mg/kg (Rattus norvegicus [1]): 1.84%
inhibition in vivo at 10 mg/kg (Rattus norvegicus [2]): 1.08%

CC(=O)N1N=C(c2ccc(N3CCOCC3)cc2)CC1c1cccs1 (stereo not given)
inhibition in vivo at 10 mg/kg (Rattus norvegicus [1]): 11.7%
inhibition in vivo at 10 mg/kg (Rattus norvegicus [2]): 6.86%

CC(=O)N1N=C(c2ccc(N3CCOCC3)cc2)CC1c1ccc(Br)cc1 (stereo not given)
inhibition in vivo at 10 mg/kg (Rattus norvegicus [1]): 19%
inhibition in vivo at 10 mg/kg (Rattus norvegicus [2]): 11.2%

COc1ccccc1C1CC(c2ccc(N3CCOCC3)cc2)=NN1C(C)=O (stereo not given)
inhibition in vivo at 10 mg/kg (Rattus norvegicus [1]): 52.8%
inhibition in vivo at 10 mg/kg (Rattus norvegicus [2]): 31.1%

COc1ccc(C2CC(c3ccc(N4CCOCC4)cc3)=NN2C(C)=O)cc1OC (stereo not given)
inhibition in vivo at 10 mg/kg (Rattus norvegicus [1]): 9.82%
inhibition in vivo at 10 mg/kg (Rattus norvegicus [2]): 5.78%

COc1cc(OC)cc(C2CC(c3ccc(N4CCOCC4)cc3)=NN2C(C)=O)c1 (stereo not given)
inhibition in vivo at 10 mg/kg (Rattus norvegicus [1]): 22.7%
inhibition in vivo at 10 mg/kg (Rattus norvegicus [2]): 13.4%

COc1cc(C2CC(c3ccc(N4CCOCC4)cc3)=NN2C(C)=O)cc(OC)c1OC (stereo not given)
inhibition in vivo at 10 mg/kg (Rattus norvegicus [1]): 6.13%
inhibition in vivo at 10 mg/kg (Rattus norvegicus [2]): 3.61%

CCC(=O)N1N=C(c2ccc(N3CCOCC3)cc2)CC1c1cccs1 (stereo not given)
inhibition in vivo at 10 mg/kg (Rattus norvegicus [1]): 1.84%
inhibition in vivo at 10 mg/kg (Rattus norvegicus [2]): 1.08%

CCC(=O)N1N=C(c2ccc(N3CCOCC3)cc2)CC1c1ccc(Br)cc1 (stereo not given)
inhibition in vivo at 10 mg/kg (Rattus norvegicus [1]): 31.3%
inhibition in vivo at 10 mg/kg (Rattus norvegicus [2]): 18.4%

CCC(=O)N1N=C(c2ccc(N3CCOCC3)cc2)CC1c1ccccc1OC (stereo not given)
inhibition in vivo at 10 mg/kg (Rattus norvegicus [1]): 10.4%
inhibition in vivo at 10 mg/kg (Rattus norvegicus [2]): 6.14%

CCC(=O)N1N=C(c2ccc(N3CCOCC3)cc2)CC1c1ccc(OC)c(OC)c1 (stereo not given)
inhibition in vivo at 10 mg/kg (Rattus norvegicus [1]): 52.8%
inhibition in vivo at 10 mg/kg (Rattus norvegicus [2]): 31.1%

COc1ccc2c(c1)c(CC(=O)O)c(C)n2C(=O)c1ccc(Cl)cc1 [INDOMETHACIN]
inhibition in vivo at 10 mg/kg (Rattus norvegicus [2]): 58.8%
